Measured values taken from patent publication US20250263436A1, “BROAD-SPECTRUM ANTIVIRAL DRUG FOR ENTEROVIRUS, AND APPLICATION” (WUHAN INSTITUTE OF VIROLOGY, CHINESE ACADEMY OF SCIENCES, priority 2020, published 2025).
Where “and” joins values, the source holds several entries; their conditions need not be identical. Equal entries are not always repeated.

Tests used:
[1] = system: Vero cells; assay: Cytotoxicity of polypeptides in Vero cells (CCK-8); format: cell-based; settings: Vero cells, 24 h
Procedure: (§1) Therefore, this standard was testified by cytotoxicity assay, and the cells without any treatment were used as a control group.
(§2) (1) Vero cells were plated in a 96-well plate at 100 μL per well.
(§3) (2) When the cells grew to a confluence of 70%-80%, the DMEM medium containing 10% serum was replaced with a DMEM medium containing 2% serum, and a certain concentration gradient of polypeptide RQ or LQ or SQ was added, so that the final concentrations of the polypeptide in the wells were 0.073242 μM, 0.146484 μM, 0.292969 μM, 0.585938 μM, 1.171875 μM, 2.34375 μM, 4.6875 μM, 9.375 μM, 18.75 μM, 37.5 μM, 75 μM and 150 μM, respectively.
(§4) (3) The samples were collected 24 h after the addition of the polypeptide, and then 10 μL of live cell detection reagent CCK-8 was added to each well and mixed well.
(§5) (4) The plate was placed at 37° C. for 2 h.
(§6) (5) The absorbance value at OD450 was detected by a microplate reader.
(§7) The CC50 of each polypeptide was calculated taking the cell viability of untreated cells as 100%.

[2] = Cytotoxicity of polypeptides in Vero cells (CCK-8); format: cell-based; settings: Vero cells, 24 h
Procedure: as §1, §2, §3, §4, §5, §6, §7

In the case of `CC[C@H](C)[C@H](NC(=O)[C@H](C)NC(=O)[C@H](CO)NC(=O)[C@H](CCCNC(=N)N)NC(=O)[C@H](CC(N)=O)NC(=O)[C@H](CC(N)=O)NC(=O)[C@H](Cc1ccc(O)cc1)NC(=O)[C@H](CCC(=O)O)NC(=O)[C@H](CCCNC(=N)N)NC(=O)CNC(=O)[C@H](CO)NC(=O)CNC(=O)[C@H](CCCNC(=N)N)NC(=O)[C@H](CCCNC(=N)N)NC(=O)[C@H](CCCNC(=N)N)NC(=O)[C@H](CCC(N)=O)NC(=O)[C@H](CCCNC(=N)N)NC(=O)[C@H](CCCNC(=N)N)NC(=O)[C@H](CCCCN)NC(=O)[C@H](CCCCN)NC(=O)[C@H](CCCNC(=N)N)NC(=O)CNC(=O)[C@@H](N)Cc1ccc(O)cc1)C(=O)NCC(=O)N[C@@H](CC(N)=O)C(=O)N[C@H](C(=O)N[C@H](C(=O)N[C@@H](CCC(=O)O)C(=O)N[C@@H](C)C(=O)N[C@@H](CC(C)C)C(=O)N[C@@H](Cc1ccccc1)C(=O)N[C@@H](CCC(N)=O)C(=O)O)[C@@H](C)CC)[C@@H](C)O` [RQ], the “Cell viability (%)” value ([1]; polypeptide 0.073242 μM) is reported as 110.2362% and 105.9618%, the “Cell viability (%)” value ([1]; polypeptide 0.146484 μM) is reported as 99.1% and 98.99% and the “Cell viability (%)” value ([1]; polypeptide 0.292969 μM) is reported as 106.7492%. The “Cell viability (%)” value ([1]; polypeptide 0.585938 μM) was 91.56% and 90.78%, the “Cell viability (%)” value ([1]; polypeptide 1.171875 μM) was 115.2981% and 115.5231% and the “Cell viability (%)” value ([1]; polypeptide 2.34375 μM) was 111.0236% and 119.1226%. For the same compound, the “Cell viability (%)” value ([1]; polypeptide 4.6875 μM) was 109.7863% and 118.7852%, the “Cell viability (%)” value ([1]; polypeptide 9.375 μM) was 109.3363% and 99.1% and the “Cell viability (%)” value ([1]; polypeptide 18.75 μM) was 115.4106% and 105.7368%. The “Cell viability (%)” value ([1]; polypeptide 37.5 μM) was 108.5489%, the “Cell viability (%)” value ([1]; polypeptide 75 μM) was 127.5591% and 120.5849% and the “Cell viability (%)” value ([1]; polypeptide 150 μM) was 103.5996% and 100.1125%. The CC50 at 24 h ([2]; African green monkey, CCK-8) was greater than 150 µM, the viability at 24 h, 0.073242 µM ([2]; polypeptide 0.073242 μM, read-out: Cell viability (%)) was 101% and the viability at 24 h, 0.146484 µM ([2]; polypeptide 0.146484 μM, read-out: Cell viability (%)) was 93.8%. For the same compound, the viability at 24 h, 0.292969 µM ([2]; polypeptide 0.292969 μM, read-out: Cell viability (%)) was 92.7%, the viability at 24 h, 0.585938 µM ([2]; polypeptide 0.585938 μM, read-out: Cell viability (%)) was 92.2% and the viability at 24 h, 1.17188 µM ([2]; polypeptide 1.171875 μM, read-out: Cell viability (%)) was 116%. For the same compound, the viability at 24 h, 2.34375 µM ([2]; polypeptide 2.34375 μM, read-out: Cell viability (%)) was 116%, the viability at 24 h, 4.6875 µM ([2]; polypeptide 4.6875 μM, read-out: Cell viability (%)) was 113% and the viability at 24 h, 9.375 µM ([2]; polypeptide 9.375 μM, read-out: Cell viability (%)) was 118%. For the same compound, the viability at 24 h, 18.75 µM ([2]; polypeptide 18.75 μM, read-out: Cell viability (%)) was 111%, the viability at 24 h, 37.5 µM ([2]; polypeptide 37.5 μM, read-out: Cell viability (%)) was 106% and the viability at 24 h, 75 µM ([2]; polypeptide 75 μM, read-out: Cell viability (%)) was 110%. For the same compound, the viability at 24 h, 150 µM ([2]; polypeptide 150 μM, read-out: Cell viability (%)) was 108%.
